According to publication PMC6843445, “Pharmacokinetic Properties of Fluorescently Labelled Hydroxypropyl-Beta-Cyclodextrin” (Biomolecules, 2019):

Assay: Tissue accumulation in the supernatant of tissue homogenates ex vivo
Parameters: species or system BALB/c male mice
Conditions: mice, i.v., after 60 min
Description: After the last blood sample collection, six animals were anaesthetized, and their blood vessels were perfused by warm saline solution. Finally, all mice were sacrificed, and the organs were removed from the six saline-perfused mice for further analysis. The collected organs (livers, lungs, kidneys, spleens, hearts and brains) were homogenized by adding 0.8 mL saline solution and the homogenates were centrifuged at 10,000 rpm for 20 min at 4 °C. From each sample, 0.1 mL of supernatant was placed into black 96-well plates and the fluorescence intensities were measured by microplate reader as described above. The lower limit of quantification of FITC-HPBCD in mouse plasma and organ homogenates was 0.25 µg/mL. The protein content of the tissue samples was determined by PierceTM BCA protein assay (Thermo Scientific, Rockford, IL, USA) according to the manufacturer’s instruction. FITC-HPBCD content of the samples was normalized to the tissue protein content. The animals were maintained in accordance with the Guidelines for the Care and Use of Laboratory Animals; experiments were approved by the Animal Care Committee of the University of Debrecen (permission no. 12/2014).

6-deoxy-6-[(5/6)-fluoresceinylthioureido]-(2-hydroxypropyl)-β-cyclodextrin [FITC-HPBCD]
fluorescence intensities in the supernatant of liver, lung, spleen, heart and brain homogenates: not elevated
fluorescence intensity in the supernatant of kidney homogenates (normalized to tissue protein content): significant fluorescence
